In data set [1] the target is Androgen receptor (Rattus norvegicus, UniProt P15207). The data set is described as follows: Binding affinity to rat Androgen receptor in African green monkey COS-7 cells measured by whole-cell binding assay. In kind it is cell-based.
In data set [2] the target is T1, Androgen receptor (Homo sapiens, UniProt P10275).
T1 sequence (P10275 whole entry): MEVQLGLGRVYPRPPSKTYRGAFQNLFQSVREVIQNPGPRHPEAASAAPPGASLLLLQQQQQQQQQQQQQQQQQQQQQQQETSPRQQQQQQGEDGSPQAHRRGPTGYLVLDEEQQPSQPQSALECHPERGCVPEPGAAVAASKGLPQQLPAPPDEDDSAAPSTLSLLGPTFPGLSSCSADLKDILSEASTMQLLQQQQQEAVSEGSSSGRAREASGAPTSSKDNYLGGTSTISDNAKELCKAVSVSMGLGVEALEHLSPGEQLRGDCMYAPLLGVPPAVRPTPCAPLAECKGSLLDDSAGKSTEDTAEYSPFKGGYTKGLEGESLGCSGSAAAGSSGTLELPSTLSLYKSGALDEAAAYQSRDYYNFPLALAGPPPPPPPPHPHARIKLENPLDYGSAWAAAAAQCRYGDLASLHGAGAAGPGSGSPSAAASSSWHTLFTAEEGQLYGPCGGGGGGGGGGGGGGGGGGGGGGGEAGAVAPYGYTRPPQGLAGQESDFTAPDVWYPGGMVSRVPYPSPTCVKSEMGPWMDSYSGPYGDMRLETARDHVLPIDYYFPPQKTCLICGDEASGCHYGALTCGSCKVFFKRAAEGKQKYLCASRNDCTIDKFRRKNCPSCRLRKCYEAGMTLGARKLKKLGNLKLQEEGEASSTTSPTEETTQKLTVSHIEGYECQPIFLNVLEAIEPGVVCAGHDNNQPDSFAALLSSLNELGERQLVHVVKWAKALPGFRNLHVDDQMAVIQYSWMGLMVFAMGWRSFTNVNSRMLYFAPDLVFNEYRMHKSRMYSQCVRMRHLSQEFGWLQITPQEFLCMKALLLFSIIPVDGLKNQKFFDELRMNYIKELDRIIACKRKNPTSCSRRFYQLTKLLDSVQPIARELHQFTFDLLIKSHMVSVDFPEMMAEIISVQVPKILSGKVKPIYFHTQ
The data set is described as follows: Antagonist activity at wild-type Androgen receptor (unknown origin) expressed in African green monkey COS-7 cells measured as gene transcription level. In kind it is cell-based.

The target of data set [3] is T2, Androgen receptor (Homo sapiens, UniProt P10275, T878A). The data set is described as follows: Binding affinity to bicalutamide-resistant Androgen receptor T877A mutant (unknown origin).
The nature of data set [4]: Antitumor activity against bicalutamide-resistant human LNCaP-cxD2 cells xenografted in mouse at 25 mg/kg, po administered for 28 days. In kind it is functional. As to conditions: time 28 day. Background: In xenograft studies the graft and the host belong to different species.
The target in data set [5] is T2, Androgen receptor. Nature of the data set: Antagonist activity at Androgen receptor T877A mutant (unknown origin) expressed in African green monkey COS-7 cells measured as gene transcription level. In kind it is cell-based.
The target of data set [6] is T1, Androgen receptor. Nature of the data set: Binding affinity to wild-type Androgen receptor (unknown origin).
Data set [7] has as its system LNCaP. Nature of the data set: Antiproliferative activity against human LNCaP cells expressing wild-type Androgen receptor. In kind it is functional, cell-based.
Data set [8] has as its target T2, Androgen receptor. Nature of the data set: Binding affinity to bicalutamide-resistant Androgen receptor T878A mutant (unknown origin).
Data set [9] has as its system LNCaP. Nature of the data set: Antiproliferative activity against human LNCaP cells expressing Androgen receptor T878A mutant. In kind it is functional, cell-based.
Data set [10] in a line: In vivo agonist activity at Androgen receptor in castrated male rat assessed as increase in prostate weight at 0.76 mg administered orally per day. In kind it is functional. To be noted: route po.
Data set [11] is described as follows: In vivo agonist activity at Androgen receptor in castrated rat assessed as increase in levator ani muscle weight at 0.11 mg administered orally per day for 14 days. In kind it is functional. To be noted: route po, time 14 day.
Data set [12] addresses T1, Androgen receptor. The data set is described as follows: Antagonist activity at Androgen receptor (unknown origin) in African green monkey COS-1 cells. In kind it is cell-based.
Data set [13] deals with T3, Androgen receptor (Homo sapiens) (UniProt P10275).
T3 sequence (whole entry): T1 sequence (P10275 whole entry)
The data set is described as follows: Displacement of [3H]DHT from Androgen receptor (unknown origin) relative to control. As to conditions: filed as antagonist. For orientation: Loss of bound radioactivity is the signal in a displacement assay; it reports binding, not function.

Data set [14] in a line: Oral bioavailability in mouse. In kind it is ADME, organism-based. To be noted: in vivo.
Another data set concerns VCaP. Nature of the data set: Antiproliferative activity against human VCaP cells. In kind it is functional, cell-based.
For data set [15], the system named is LNCaP. The data set is described as follows: Antitumor activity against human LNCaP cells expressing Androgen receptor F877L mutant xenografted in mouse assessed as tumor growth inhibition at 30 mg/kg, po administered daily. In kind it is functional. To be noted: read-out: TGI.
Data set [16] deals with T1, Androgen receptor. The data set is described as follows: Antagonist activity at Androgen receptor (unknown origin) assessed as inhibition of activation function 1 (AF-1) of AR N-terminal transactivation domain (NTD).
The target in data set [17] is T1, Androgen receptor. In kind it is cell-based, LNCaP C4-2.
Description: Antagonist activity at Androgen receptor in human LNCaP C4-2 cells transfected with PSA6.1-luc and pRL-TK measured by luciferase gene reporter assay
The nature of data set [18]: In vivo agonist activity at Androgen receptor in male rat assessed as increase in levator ani muscle weight at 0.1 mg/kg, po administered for 14 days. In kind it is functional. As to conditions: time 14 day.
The nature of data set [19]: In vivo agonist activity at Androgen receptor in male rat assessed as increase in prostate weight at 0.1 mg/kg, po administered for 14 days. In kind it is functional. As to conditions: time 14 day.
A short description of data set [20]: In vivo agonist activity at Androgen receptor in rat assessed as increase in levator ani muscle weight administered orally for 14 days. In kind it is functional. To be noted: 336 h, route po, time 14 day.
Data set [21] in a line: Half-life in plasma of rat. In kind it is ADME.
The nature of data set [22]: In vivo agonist activity at Androgen receptor in male rat assessed as increase in levator ani muscle weight at 2 mg/kg, po administered for 5 days. In kind it is functional. To be noted: time 5 day.
A short description of data set [23]: In vivo agonist activity at Androgen receptor in male rat assessed as increase in prostate weight at 2 mg/kg, po administered for 5 days. In kind it is functional. To be noted: time 5 day.
For data set [24], the target named is T1, Androgen receptor. The data set is described as follows: Antagonist activity at Androgen receptor in human MDA-MB-453 cells measured by SEAP reporter gene assay. In kind it is cell-based. In general terms: In a reporter assay the amount or activity of a reporter protein is the signal.
Data set [25] deals with Rattus norvegicus. Nature of the data set: Antagonist activity in mature male Sprague-Dawley rat assessed as decrease in seminal vesicle and prostate weight at 15 mg/kg, po administered once a day for 14 days. In kind it is functional. Details: scale not given: the % may be the effect or the level left. As to conditions: time 14 day.
Data set [26] deals with T1, Androgen receptor. The data set is described as follows: Displacement of [3H]DHT from Androgen receptor expressed in human MDA-MB-453 cells. In kind it is cell-based.
The target of data set [27] is T1, Androgen receptor.
Description: Antagonist activity at Androgen receptor in human LNCaP cells assessed as inhibition of PSA expression
Data set [28] relates to Rattus norvegicus. Nature of the data set: Antagonist activity in mature male Sprague-Dawley rat assessed as decrease in seminal vesicle and prostate weight at 10 mg/kg, po administered once a day for 14 days. On the set-up: scale not given: the % may be the effect or the level left. As to conditions: time 14 day. In kind it is functional.
The subject of data set [29] is Rattus norvegicus. The data set is described as follows: Antagonist activity in mature male Sprague-Dawley rat assessed as decrease in seminal vesicle and prostate weight at 1 mg/kg, po administered once a day for 14 days. In kind it is functional. To be noted: time 14 day. On the set-up: scale not given: the % may be the effect or the level left.
In data set [30] the target is T1, Androgen receptor. The data set is described as follows: Antagonist activity at Androgen receptor in human LNCaP cells measured by SEAP reporter gene assay. In kind it is cell-based.

T2 sequence (P10275 whole entry T878A): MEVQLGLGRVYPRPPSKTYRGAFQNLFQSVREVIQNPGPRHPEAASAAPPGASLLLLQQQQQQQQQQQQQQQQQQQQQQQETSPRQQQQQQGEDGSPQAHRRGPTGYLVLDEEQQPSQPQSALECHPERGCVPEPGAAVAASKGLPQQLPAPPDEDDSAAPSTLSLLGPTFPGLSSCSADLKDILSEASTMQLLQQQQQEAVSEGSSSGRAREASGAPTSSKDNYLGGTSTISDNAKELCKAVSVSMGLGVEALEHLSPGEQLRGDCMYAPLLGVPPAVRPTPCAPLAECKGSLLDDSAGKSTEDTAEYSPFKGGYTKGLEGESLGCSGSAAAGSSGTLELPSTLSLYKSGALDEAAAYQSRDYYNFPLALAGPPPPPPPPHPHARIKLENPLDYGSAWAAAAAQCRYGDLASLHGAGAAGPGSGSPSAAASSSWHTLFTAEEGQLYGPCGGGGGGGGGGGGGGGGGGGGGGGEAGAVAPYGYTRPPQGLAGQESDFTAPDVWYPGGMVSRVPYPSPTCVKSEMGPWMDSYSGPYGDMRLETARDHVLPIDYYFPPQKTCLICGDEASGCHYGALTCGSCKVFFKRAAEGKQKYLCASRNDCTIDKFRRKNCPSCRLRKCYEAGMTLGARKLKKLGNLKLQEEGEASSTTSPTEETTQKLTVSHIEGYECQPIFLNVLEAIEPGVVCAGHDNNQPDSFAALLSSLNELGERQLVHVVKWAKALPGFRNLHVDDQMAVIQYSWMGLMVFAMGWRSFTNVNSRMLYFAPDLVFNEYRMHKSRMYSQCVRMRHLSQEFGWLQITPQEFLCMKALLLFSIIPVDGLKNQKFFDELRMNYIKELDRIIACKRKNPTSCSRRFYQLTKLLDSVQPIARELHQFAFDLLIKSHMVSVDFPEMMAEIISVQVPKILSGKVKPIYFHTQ
Chain of Androgen receptor (Rattus norvegicus, UniProt P15207) (P15207 whole entry S389L): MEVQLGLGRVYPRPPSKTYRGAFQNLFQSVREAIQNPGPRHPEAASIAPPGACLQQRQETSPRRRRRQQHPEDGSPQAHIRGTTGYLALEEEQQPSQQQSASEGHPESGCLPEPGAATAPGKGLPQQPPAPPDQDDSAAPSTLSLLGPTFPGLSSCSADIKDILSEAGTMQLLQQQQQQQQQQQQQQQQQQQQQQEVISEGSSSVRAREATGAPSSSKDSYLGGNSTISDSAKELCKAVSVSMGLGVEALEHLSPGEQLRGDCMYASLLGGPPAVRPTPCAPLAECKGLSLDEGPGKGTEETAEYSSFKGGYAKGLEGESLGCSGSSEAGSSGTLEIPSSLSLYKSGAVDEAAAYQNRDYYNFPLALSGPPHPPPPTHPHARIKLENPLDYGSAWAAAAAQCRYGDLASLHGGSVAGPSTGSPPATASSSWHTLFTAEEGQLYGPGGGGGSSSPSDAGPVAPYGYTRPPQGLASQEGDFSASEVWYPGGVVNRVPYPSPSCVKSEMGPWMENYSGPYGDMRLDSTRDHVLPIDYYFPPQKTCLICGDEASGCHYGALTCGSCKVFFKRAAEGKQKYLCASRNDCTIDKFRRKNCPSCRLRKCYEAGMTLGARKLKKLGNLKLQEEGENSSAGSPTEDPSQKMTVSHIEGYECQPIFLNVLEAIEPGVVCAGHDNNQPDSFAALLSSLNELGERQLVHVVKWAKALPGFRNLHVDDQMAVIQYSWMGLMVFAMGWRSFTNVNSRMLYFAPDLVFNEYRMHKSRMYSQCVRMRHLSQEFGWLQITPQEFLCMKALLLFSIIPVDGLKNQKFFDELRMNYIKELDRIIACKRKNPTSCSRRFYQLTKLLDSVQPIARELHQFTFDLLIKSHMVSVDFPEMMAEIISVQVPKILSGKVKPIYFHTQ

In the case of `OC1(C(F)(F)F)CCCC2c3cc(Cl)c(Cl)cc3NC21` (centres undefined), the IC50 (commonly the midpoint of a concentration-inhibition curve) on Androgen receptor [1] is 27 nM.

As to `Cc1c(C#N)c(-c2ccc(C#N)cc2)c(C)n1-c1cnc(Cl)c(CO)c1`, the IC50 against Androgen receptor [2] is 25 nM; at Androgen receptor [3], 100 nM; on Androgen receptor [5], 110 nM; at Androgen receptor [6], 37 nM. The T/C (commonly the result in the treated group divided by that in the control group, in per cent) in [4] turned out to be 15%.

Turning to `CNC(=O)c1ccc([C@]2(O)CCN(c3ccc(C#N)c(Cl)c3)[C@H]2C)cn1`, the IC50 was found to be 290 nM in the data set on LNCaP [7], 1700 nM on Androgen receptor [8], 1700 nM with LNCaP [9] and 830 nM at Androgen receptor [6].

For `C[C@@]1(C(=O)Nc2ccc(C#N)c(C(F)(F)F)c2)CC(C(F)(F)F)=NN1`, the Activity in data set [10] was 51%; in [11], 90%.

As to `N#Cc1ccc(C2=NO[C@H]3CCCC[C@@H]23)cc1C(F)(F)F`, the IC50 against Androgen receptor [12] was 27.5 nM. In data set [13], the Activity stood at 99.2%.

On to `N#Cc1ncc(N2C(=O)C3(CCC3)N(c3ccc(OC4CCNCC4)nc3)C2=S)cc1C(F)(F)F` [TRC-253], for which, in data set [14], the bioavailability (commonly dose-corrected exposure relative to a reference, in per cent) turned out to be 45%. In the data set on VCaP, this molecule came in with an IC50 of 290 nM. In addition, the inhibition in vivo at 30 mg/kg in the data set with LNCaP [15] was found to be 87%.

`CC(=O)OC[C@H](COc1ccc(C(C)(C)c2ccc(OC[C@@H](CCl)OC(C)=O)cc2)cc1)OC(C)=O` [RALANITEN ACETATE]: on Androgen receptor [16], the concentration for half-maximal inhibition (IC50) turned out to be 9600 nM.

For the molecule `Cc1ccc(Cl)cc1N1CCN(C(=O)[C@@H]2C[C@@H]2c2ccc(F)cc2)CC1`, at Androgen receptor [17], the EC50 (commonly the concentration giving half of the maximal effect) is 1700 nM.

Turning to `Cc1c(/N=C2\O[C@@H](C(F)(F)F)[C@@H]3[C@@H](O)CCN23)ccc(C#N)c1Cl`, the Activity in data set [18] and in [19] was 100% each time.

Consider `CC[C@H]1[C@@H]2[C@@H](O)CCN2C(=O)N1c1ccc(C#N)c(Cl)c1C`, for which, in data set [20], the ED50 (in general, the dose that gives a 50% effect, or the effect in half of the subjects) worked out at 0.09 mg/kg. For the same molecule, the half-life (commonly the time in which the quantity being followed falls by half) in data set [21] was 5.5 h.

Turning to `Cc1c(/N=C2\N=C(N)N3N=C(C(F)(F)F)C[C@@]23C)ccc(C#N)c1C(F)(F)F`, the Activity stood at 91% in [22] and 36% in data set [23].

For `CNC(=O)[C@]12C(=O)N(c3ccc(C#N)c(C(F)(F)F)c3)C(=O)[C@H]1[C@H]1C[C@H](F)[C@@H]2C1`, half-maximal inhibition on Androgen receptor [24] (IC50) required 91 nM. In addition, the Activity in the data set on Rattus norvegicus [25] was 35%. Moreover, the affinity on Androgen receptor [26] corresponds to a Ki of 8 nM.

In turn, `NS(=O)(=O)c1cccc2cc(SCCOc3ccccc3)[nH]c12` came in with an IC50 on Androgen receptor [27] of 530 nM.

Regarding `CCS(=O)(=O)N[C@@H]1C[C@@]2(C)O[C@]1(C)[C@@H]1C(=O)N(c3ccc(C#N)c(C(F)(F)F)c3)C(=O)[C@@H]12`, the Activity in the data set on Rattus norvegicus [28] is reported as 74%; in the data set with Rattus norvegicus [29], 42%. Besides, the 50% inhibitory concentration (IC50) turned out to be 16 nM against Androgen receptor [24] and 153 nM against Androgen receptor [30]. At Androgen receptor [26], the inhibition constant (Ki) (usually the equilibrium dissociation constant of an inhibitor or competing ligand from its target) came to 1.7 nM.

The values are drawn from ChEMBL document CHEMBL5137058, “Therapeutic Strategies to Target the Androgen Receptor” (J Med Chem, 2022).
